From patent US20250034498A1, “MICROFLUIDIC DEVICES” (Ecole Polytechnique Federale de Lausanne, priority 2021, published 2025)
Entries after “also recorded” stand apart in the source; their conditions may differ.

B1: Bone Morphogenetic Protein 4 (protein, UniProt P12644 293-408, looked up)
Bone morphogenetic protein 4: SPKHHSQRARKKNKNCRRHSLYVDFSDVGWNDWIVAPPGYQAFYCHGDCPFPLADHLNSTNHAIVQTLVNSVNSSIPKACCVPTELSAISMLYLDEYDKVVLKNYQEMVVEGCGCR
notes: dorsalizing morphogen

Tested on: neural tube organoids
Test: dorsal-ventral patterning of neural tube organoids at the gradient window of the microfluidic device
Format: cell-based
Settings: for identity of neural tube organoid (PAX3/7 dorsal marker, OLIG2 ventral marker): D6 organoids exposed 18 hours; for spatial patterning of neural tube organoid (PAX3/7 dorsal marker, OLIG2 ventral marker): anti-parallel gradient 1.6 nM BMP4 (L)-500 nM SAG (R), 18 hours
Method: In the present example, the organoid of interest was cultured in a Matrigel™ drop for six days then harvested, and the organoid was suspended in Matrigel™ and loaded into the culture chamber 130 and placed at the gradient window 150 via the loading channel 170. A small drop of N2B27 medium was placed in each of the first and second medium chambers or reservoirs 110, 120 for humidification, and the chip was incubated in a 5% CO2 and 37° C. incubator for 5 minutes to allow the Matrigel™ to polymerise. After incubation, the first and second chambers 110, 120 were filled with N2B27 medium supplemented with 1.6 nM of BMP4 as a dorsal morphogen and 500 nM of SAG as a ventral morphogen respectively, and residual air in the device was removed from the first and second air outlets 140-1, 140-2 to allow the morphogen-supplemented media to diffuse across the gradient window 150. The device containing the organoid was incubated in a 5% CO2 and 37° C. incubator for 18 hours.
A neural tube organoid was placed in the gradient window of the device where a dorsal-ventral morphogen gradient has developed, using BMP4 as a dorsal morphogen and SAG as a ventral morphogen. PAX3/7 was used as a marker for dorsal fate neural tube cell and OLIG2 was used as a marker for ventral fate neural tube cell.
As described above, the neural tube organoids from D6 were introduced in the microfluidic device and exposed to different morphogen gradients for 18 hours. All scale bars are 100 μm.

Row | Molecule | identity of neural tube organoid (PAX3/7 dorsal marker, OLIG2 ventral marker) (N2B27 (L)-500 nM SAG (R)) | spatial patterning of neural tube organoid (PAX3/7 dorsal marker, OLIG2 ventral marker) | identity of neural tube organoid (PAX3/7 dorsal marker, OLIG2 ventral marker) (1.6 nM BMP4 (L)-N2B27 (R))
1 | CNC1CCC(N(Cc2cccc(-c3ccncc3)c2)C(=O)c2sc3ccccc3c2Cl)CC1 (stereo not shown) [SAG] | dominant ventral identity expressing OLIG2 | OLIG2 positive cells were biased towards the SAG source; also recorded: OLIG2 biased to right side | –
2 | B1 | – | PAX3/7 positive cells were biased towards the BMP4 source; also recorded: PAX3/7 biased to the left side | dorsal identity expressing PAX3/7
